According to paper PMC5515887, “Ruthenium-conjugated chrysin analogues modulate platelet activity, thrombus formation and haemostasis with enhanced efficacy” (Scientific Reports, 2017):

Key:
[1] = system: human platelet-rich plasma (PRP); experiment: CRP-XL-induced platelet aggregation in human platelet-rich plasma (optical aggregometry); format: cell-based; details: PRP, CRP-XL 0.5 μg/mL
Description: Therefore, to determine the effects of various concentrations of chrysin and its derivatives in the presence of plasma proteins, aggregation assays were performed using human platelet-rich plasma (PRP) and 0.5 μg/mL CRP-XL.
Figure 3 Impact of chrysin and its derivatives on platelet activation in platelet-rich plasma. […] The platelet aggregation was monitored for 5 minutes. The traces shown are representative of three separate experiments.
(§1) The preparation of human platelets and aggregation assays were performed using standard protocols as described by us previously, [16]. Briefly, human blood was collected in 3.2% citrate containing vacutainers via venepuncture from healthy, aspirin-free individuals with informed consent in accordance with the methods approved by the University of Reading Research Ethics Committee. All methods were performed in accordance with the relevant institutional and national guidelines and regulations. Blood samples were centrifuged at 102 g for 20 minutes at room temperature to separate the PRP, which was used in aggregation, flow cytometry, static platelet adhesion, calcium mobilisation and clot retraction assays. For the preparation of washed platelets, 50 mL of blood samples were mixed with 7.5 mL of ACD (acid citrate dextrose) (20 g/L glucose, 25 g/L sodium citrate and 15 g/L citric acid) and centrifuged at 102 g for 20 minutes at room temperature. The PRP was carefully aspirated from the other blood cells prior to mixing with 3 mL of ACD and centrifuging at 1413 g for 10 minutes at room temperature. The resulting platelet pellet was re-suspended in modified Tyrodes-HEPES buffer (2.9 mM KCl, 134 mM NaCl, 0.34 mM Na2HPO4.12H20, 1 mM MgCl2, 12 mM NaHCO3, 20 mM HEPES, pH 7.3) and washed by centrifuging again at 1413 g for 10 minutes. The resulting platelet pellet was suspended in modified Tyrodes-HEPES buffer at a density of 4 × 10^8 cells/mL for aggregation, dense granule secretion, cellular uptake studies and calcium mobilisation assays. Human platelet aggregation was performed using CRP-XL as an agonist in the presence and absence of various concentrations of chrysin and its synthetic derivatives by optical aggregometry. A vehicle control [DMSO at a concentration of less than 0.1% (v/v)] was included in all the experiments. Dense granule secretion in platelets was determined by measuring the ATP release using the luciferin-luciferase reagent by lumi-aggregometry (Chrono-Log, USA). SDS-PAGE and immunoblotting analysis were performed using standard protocols. The rabbit anti-phospho-specific antibodies for human AKT pS473, FAK pY397 and Src pY527 were obtained from Abcam, UK and rabbit anti-human 14-3-3ζ (Santa Cruz Biotechnology, USA) was used to detect protein 14-3-3ζ as a loading control in immunoblot assays. The Cy5-conjugated goat anti-rabbit IgG (Life technologies, UK) was used as the secondary antibody.

human washed platelets = experiment: CRP-XL-induced aggregation of human washed platelets (optical aggregometry); format: cell-based; details: CRP-XL 0.5 μg/mL
Description: To determine the effects of chrysin and thio-chrysin and their Ru-complexes in the modulation of platelet activation, aggregation assays were performed using cross-linked collagen-related peptide (CRP-XL) as a platelet agonist, by optical aggregometry. Firstly, to determine the effects of chrysin and its derivatives on isolated platelets, aggregation assays were performed using human washed platelets (devoid of plasma proteins and other blood cells).
Figure 2 Effects of chrysin and its derivatives in washed platelet aggregation. […] The aggregation traces shown are representative of three separate experiments.
as §1

[2] = system: α-granule secretion in platelets; experiment: P-selectin exposure by flow cytometry (marker for α-granule secretion); format: cell-based, human; details: PRP; CRP-XL 0.5 μg/mL
Description: Platelets primarily contain two types of granules (α- and dense granules) and the activation of platelets releases the granule contents to the external environment, where they play important roles in the stimulation of additional platelets and their recruitment to the growing thrombus. […] However, chrysin affected α-granule secretion only at a minimum concentration of 50 μM in platelets.
Figure 5 Chrysin and its derivatives affect granule secretion in platelets. […] The level of P-selectin (as a marker for α-granule secretion) was quantified using PECy5-labelled anti-human P-selectin antibodies by flow cytometry. […] R represents ‘resting’ platelets. […] Platelets were then activated with 0.5 μg/mL CRP-XL and the ATP release was monitored for 5 minutes by lumi-aggregometry. The traces shown are representative of three separate experiments.

[3] = system: outside-in signalling by integrin αIIbβ3; experiment: Clot retraction assay (outside-in signalling by integrin αIIbβ3); format: cell-based, human; details: PRP; 50 μM compound; 1 U/mL thrombin; three hours
Description: R represents ‘resting’ platelets.
Following fibrinogen binding, integrin αIIbβ3 triggers signalling into the platelets in order to induce clot retraction and promote wound healing. This also represents a late downstream signalling event in the platelet activation process. To determine whether chrysin and its derivatives affect outside-in signalling by integrin αIIbβ3, a clot retraction assay was performed. […] At three hours, the clot obtained with the vehicle control [0.1% (v/v) DMSO] retracted to around 50 mg.
PRP (200 µL) was mixed with 5 µL of red blood cells and the final volume was made to 950 µL with modified Tyrodes-HEPES buffer in the presence and absence of various concentrations of chrysin or its synthetic derivatives. Clot formation was initiated by adding 1 U/mL (50 µL) thrombin. A glass capillary was placed in middle of the tube and the clot retraction was observed over a period of 3 hours at room temperature. Clot weight was measured as a marker for clot retraction after 3 hours.

[4] = system: inside-out signalling to integrin αIIbβ3; details: PRP; CRP-XL 0.5 μg/mL
Description: The level of fluorescence obtained with vehicle control was taken as 100% to calculate the extent of inhibition in chrysin and its derivatives-treated samples. R represents ‘resting’ platelets. Cumulative data represent mean ± S.D. (n = 4). […] Following incubation, clotting was initiated by the addition of 1 U/mL thrombin and the clot retraction was monitored for three hours. The remaining clot weight at three hours was measured to analyse the extent of retraction process. The image shown on the right is representative of four separate experiments. *Indicates significance with respect to controls and ^#indicates significance with respect to the respective chrysin concentrations; p values shown (*^,# p < 0.05, **^,## p < 0.01 and ***^,### p < 0.001) are as calculated by one-way ANOVA using Graphpad Prism.
The platelets (PRP) were treated with a vehicle control [0.1% (v/v) DMSO] or with different concentrations of chrysin and its synthetic derivatives prior to activation with CRP-XL (0.5 µg/mL). The levels of fibrinogen binding and P-selectin exposure were measured using FITC-labelled anti-human fibrinogen antibodies (Dako, UK) and PECy5-labelled CD62P antibodies (BD Biosciences, UK), respectively. The median fluorescence intensity was used to assess the levels of fibrinogen binding and P-selectin exposure on the platelet surface. The level of fluorescence obtained with the vehicle control was taken as 100% when compared with the treated samples.

Compound	effect on platelet aggregation in PRP [1]	effect on CRP-XL-induced platelet aggregation in washed platelets (human washed platelets)	concentrations that significantly inhibit α-granule secretion [2] [µM]	effect on clot retraction [3]	effect on platelet aggregation at lower concentrations ([1]; 6.25 μM and 12.5 μM compound)	concentrations with significantly more effects on fibrinogen binding than the respective concentrations of chrysin [4]
Cc1ccc(C(C)C)cc1.Cc1ccc(C(C)C)cc1.[Cl-].[Cl-].[Cl-].[Cl-].[Ru+2].[Ru+2] [Ru-Cl, bis [dichlorido (η^6-p-cymene)] ruthenium(II), reference compound]	failed to show any inhibitory effects	failed to affect platelet aggregation	–	–	–	–
Oc1cc(O)c2c(=S)cc(-c3ccccc3)oc2c1 [thio-chrysin]	–	no significant differences	≥ 25	significant inhibitory effect	–	–
chlorido [(5-oxo-κO)-7-hydroxy-(2-phenyl)-4H-chromen-4-onato-κO] (η6-p-cymene)ruthenium(II) [Ru-chrysin]	–	inhibited CRP-XL-induced platelet aggregation in a concentration-dependent manner	≥ 25	–	did not significantly affect the platelet aggregation	more than 25 μM
